From publication PMC12080252, “Daphnia magna as an Alternative Model for (Simultaneous) Bioaccumulation and Chronic Toxicity Assessment—Controlled Exposure Study Indicates High Hazard of Heterocyclic PAHs” (Environmental Science & Technology, 2025)
Values joined by “and” are separate entries in the source; they are usually repeats but may differ in a detail not shown here. Identical values can stand only once. Like-named read-outs stand apart in the source and are kept apart here.

Key:
Daphnia magna = format: in vivo; conditions: for % inhibition, avr.: average of vessels; for #dead offspring per mother / #live offspring per mother: per vessel; for appearance of mother: vessel 3; for body burden at the end of the depuration phase: 12-day depuration; for log BAF*L5%: 21 days of exposure, assuming steady-state; for % reproductive inhibition: Fig. S10; for body burden: after 21-day exposure; for removed fraction of accumulated body burden: after 12 days of depuration
Description: To maximize data output, we combined chronic toxicity and bioaccumulation tests in an integrated approach where the chronic toxicity test also served as an uptake phase followed by a depuration/recovery phase (Table S3). This simultaneous bioaccumulation/chronic toxicity test was performed for BNT and DNF. Of the 10 replicates per exposure level, five animals were sampled on day 21 to measure accumulated chemical concentrations and wet weights. The remaining five were transferred to clean media without test chemicals for a 12-day depuration phase under conditions identical with the uptake phase except for the absence of test chemicals. Juvenile counts were recorded daily. At the end of the depuration period, five Daphnia were collected, weighed, and analyzed for body burden (i.e., concentration of test chemical per unit of body weight) using the extraction procedure described in Section 2.7.
For quantification of body burdens, 5 daphnids were thawed, homogenized in 5 mL Milli-Q water (IKA T-25 digital Ultra-TURRAX) and extracted twice with 2 mL of hexane. The extracts were combined, dried with Na2SO4, concentrated under a nitrogen stream, and spiked with internal standard.

D. magna [1] = conditions: cited from earlier work
D. magna [2] = conditions: Table S1; footnote not given; cited from earlier work
[3] = after 11.96 µg/L, depuration phase day 1
[4] = after 11.96 µg/L, depuration phase day 9
[5] = after DNF 1.43 µg/L exposure, 12-day depuration phase

c1ccc2c(c1)ccc1sc3ccccc3c12 [BNT, benzo[b]naphtho[1,2-d]thiophene]
%offspring mortality (Daphnia magna; 11.96 µg/L, 21-day exposure): 28.01%
#total live offspring (Daphnia magna; 11.96 µg/L, all vessels, exposure day 9): 32
#total live offspring (Daphnia magna; 11.96 µg/L, all vessels, exposure day 12): 46
#total live offspring (Daphnia magna; 11.96 µg/L, all vessels, exposure day 13): 42
#total live offspring (Daphnia magna; 11.96 µg/L, all vessels, exposure day 14): 15
#total live offspring (Daphnia magna; 11.96 µg/L, all vessels, exposure day 15): 0
#total live offspring (Daphnia magna; 11.96 µg/L, all vessels, exposure day 16): 77
#total live offspring (Daphnia magna; 11.96 µg/L, all vessels, exposure day 19): 56
#total live offspring (Daphnia magna; 11.96 µg/L, all vessels, exposure day 20): 46
#total live offspring (Daphnia magna; 11.96 µg/L, all vessels, exposure day 21): 20
#total live offspring (Daphnia magna; 11.96 µg/L, all vessels, whole 21-day exposure): 329
average increase of live offspring (Daphnia magna; 11.96 µg/L, cumulative, exposure day 9): 3.2
average increase of live offspring (Daphnia magna; 11.96 µg/L, cumulative, exposure day 12): 8
average increase of live offspring (Daphnia magna; 11.96 µg/L, cumulative, exposure day 13): 12
average increase of live offspring (Daphnia magna; 11.96 µg/L, cumulative, exposure day 14): 14
average increase of live offspring (Daphnia magna; 11.96 µg/L, cumulative, exposure day 15): 14
average increase of live offspring (Daphnia magna; 11.96 µg/L, cumulative, exposure day 16): 23
average increase of live offspring (Daphnia magna; 11.96 µg/L, cumulative, exposure day 19): 29
average increase of live offspring (Daphnia magna; 11.96 µg/L, cumulative, exposure day 20): 34
average increase of live offspring (Daphnia magna; 11.96 µg/L, cumulative, exposure day 21): 36
% inhibition, avr. (Daphnia magna; 11.96 µg/L, live offspring, 21-day exposure): 49.3%
#average live offspring (Daphnia magna; 11.96 µg/L, per mother, 21-day exposure): 36
#dead offspring per mother (Daphnia magna; 11.96 µg/L, exposure day 15): 0
#live offspring per mother (Daphnia magna; 11.96 µg/L, exposure day 15): 0
appearance of mother (Daphnia magna; 11.96 µg/L, exposure day 5): very small/pale
appearance of mother (Daphnia magna; 11.96 µg/L, exposure day 7): very small
status of mother (Daphnia magna; 11.96 µg/L, vessel 4, exposure day 13): dead
body burden at the end of the depuration phase (Daphnia magna): below the LOQ
log BAF*L5% (Daphnia magna): 4.58 ± 0.05 and 4.58
% reproductive inhibition (Daphnia magna; BNT 4.3 µg/L, entire test (days 1-33)): 20%
% reproductive inhibition (Daphnia magna; BNT 4.3 µg/L, only depuration phase (days 21-33)): 6%
% reproductive inhibition (Daphnia magna; BNT 4.3 µg/L, only uptake phase (days 0-21)): 36%
% inhibition, avr. (Daphnia magna; BNT 4.72 µg/L, 21-day exposure): 35.5%
% reproductive inhibition (Daphnia magna; BNT 12 µg/L, entire test (days 1-33)): 32%
% reproductive inhibition (Daphnia magna; BNT 12 µg/L, only depuration phase (days 21-33)): 15%
% reproductive inhibition (Daphnia magna; BNT 12 µg/L, only uptake phase (days 0-21)): 49%
%offspring mortality (Daphnia magna; after 11.96 µg/L, 12-day depuration phase): 3.94%
#total live offspring (Daphnia magna; after 11.96 µg/L, all vessels, depuration phase day 1): 0
#total live offspring (Daphnia magna; after 11.96 µg/L, all vessels, depuration phase day 2): 61
#total live offspring (Daphnia magna; after 11.96 µg/L, all vessels, depuration phase day 5): 35
#total live offspring (Daphnia magna; after 11.96 µg/L, all vessels, depuration phase day 6): 63
#total live offspring (Daphnia magna; after 11.96 µg/L, all vessels, depuration phase day 7): 37
#total live offspring (Daphnia magna; after 11.96 µg/L, all vessels, depuration phase day 8): 1
#total live offspring (Daphnia magna; after 11.96 µg/L, all vessels, depuration phase day 9): 0
#total live offspring (Daphnia magna; after 11.96 µg/L, all vessels, depuration phase day 12): 120
#total live offspring (Daphnia magna; after 11.96 µg/L, all vessels, whole 12-day depuration phase): 317
average increase of live offspring (Daphnia magna; after 11.96 µg/L, cumulative since exposure start, depuration phase day 1): 36
average increase of live offspring (Daphnia magna; after 11.96 µg/L, cumulative since exposure start, depuration phase day 2): 48
average increase of live offspring (Daphnia magna; after 11.96 µg/L, cumulative since exposure start, depuration phase day 5): 55
average increase of live offspring (Daphnia magna; after 11.96 µg/L, cumulative since exposure start, depuration phase day 6): 68
average increase of live offspring (Daphnia magna; after 11.96 µg/L, cumulative since exposure start, depuration phase day 7): 75
average increase of live offspring (Daphnia magna; after 11.96 µg/L, cumulative since exposure start, depuration phase day 8): 76
average increase of live offspring (Daphnia magna; after 11.96 µg/L, cumulative since exposure start, depuration phase day 9): 76
average increase of live offspring (Daphnia magna; after 11.96 µg/L, cumulative since exposure start, depuration phase day 12): 100
#average live offspring (Daphnia magna; after 11.96 µg/L, per mother, 12-day depuration phase): 63
#dead offspring per mother (Daphnia magna; [3]): 0
#live offspring per mother (Daphnia magna; [3]): 0
#dead offspring per mother (Daphnia magna; after 11.96 µg/L, depuration phase day 8): 0
#dead offspring per mother (Daphnia magna; [4]): 0
#live offspring per mother (Daphnia magna; [4]): 0
body burden (Daphnia magna; CW = 4.7 μg L^–1): 50 mg kg^–1
body burden (Daphnia magna; CW = 12 μg L^–1): 150 mg kg^–1 wet weight
removed fraction of accumulated body burden (Daphnia magna): ≥ 99.98%
effect on D. magna immobilization (D. magna [1]; acute test, at water solubility): 35%

c1ccc2c(c1)ccc1oc3ccc4ccccc4c3c12 [DNF, dinaphtho[2,1-b:1′,2′-d]furan]
body burden at the end of the depuration phase (Daphnia magna): below the LOQ
log BAF*L5% (Daphnia magna): 4.20
% reproductive inhibition (Daphnia magna; DNF 1.43 µg/L, entire test (days 1-33)): 35%
% reproductive inhibition (Daphnia magna; DNF 1.43 µg/L, only depuration phase (days 21-33)): 14%
% reproductive inhibition (Daphnia magna; DNF 1.43 µg/L, only uptake phase (days 0-21)): 57%
%offspring mortality (Daphnia magna; DNF 1.43 µg/L, 21-day exposure): 42.26%
% inhibition, avr. (Daphnia magna; DNF 1.43 µg/L, 21-day exposure): 57.5%
#average live offspring (Daphnia magna; DNF 1.43 µg/L, 21-day exposure, per surviving mother): 31
#total live offspring (Daphnia magna; DNF 1.43 µg/L, 21-day exposure, sum of all vessels): 276
body burden (Daphnia magna; CW = 1.4 μg L^–1): 6.9 mg kg^–1
removed fraction of accumulated body burden (Daphnia magna): at least 99.57%
#average live offspring (depuration phase) (Daphnia magna; [5]): 64
%offspring mortality (depuration phase) (Daphnia magna; [5]): 3.38%
#total live offspring (depuration phase) (Daphnia magna; after DNF 1.43 µg/L exposure, 12-day depuration phase, sum of all vessels): 257
observation of mother animal (depuration phase) (Daphnia magna; after DNF 1.43 µg/L exposure, vessel 8, depuration day 3): dead
acute effects on D. magna immobilization (D. magna [1]; controlled exposure conditions): no effects were observed

c1ccc2c(c1)ccc1[nH]c3ccccc3c12 [BCRB, 7H-benzo[c]carbazole]
lowest PNEC* (D. magna [2]): 0.017 µg/L
